From US12433293B2, “Herbicidal compositions” (BAYER AKTIENGESELLSCHAFT, priority 2019, dated 2025)

System: harmful plant species
Test: Specific trial examples: synergistic effect (Δ) of herbicidal binary compositions applied by the post-emergence method, observed vs Colby expected value (Tables 3.1-3.4)
Assay type: in vivo
[1] = 1 g a.i./ha, post-emergence (Z25)
[2] = 1 g a.i./ha, post-emergence (Z26)
[3] = 4 g a.i./ha, post-emergence (Table 3.2, Z25)
[4] = 5 g a.i./ha, post-emergence (Table 3.2, Z25)
[5] = 16 g a.i./ha, post-emergence (Table 3.2, Z25)

O=C(Nc1ccc(F)cc1F)c1cccnc1Oc1cccc(C(F)(F)F)c1 [(B2.18) Diflufenican]
60%: Herbicidal action 21 DAT [%] against Ipomoea purpurea (270 g a.i./ha, post-emergence)
10%: Herbicidal action 21 DAT [%] against Kochia Scoparia (30 g a.i./ha, post-emergence) | Herbicidal action 21 DAT [%] against Setaria viridis (30 g a.i./ha, post-emergence) | Herbicidal action 28 DAT [%] against Phalaris minor (30 g a.i./ha, post-emergence) | Herbicidal action 28 DAT [%] against Poa annua L. (30 g a.i./ha, post-emergence) | Herbicidal action 28 DAT [%] against Phalaris minor (90 g a.i./ha, post-emergence)
30%: Herbicidal action 21 DAT [%] against Ipomoea purpurea (30 g a.i./ha, post-emergence) | Herbicidal action 14 DAT [%] against Matricaria inodora (270 g a.i./ha, post-emergence) | Herbicidal action 14 DAT [%] against Phalaris minor (270 g a.i./ha, post-emergence) | Herbicidal action 14 DAT [%] against Veronica hederifolia (270 g a.i./ha, post-emergence) | Herbicidal action 21 DAT [%] against Abutilon theophrasti (270 g a.i./ha, post-emergence) | Herbicidal action 28 DAT [%] against Lolium rigidum (270 g a.i./ha, post-emergence) | Herbicidal action 28 DAT [%] against Phalaris minor (270 g a.i./ha, post-emergence) | Herbicidal action 28 DAT [%] against Poa annua L. (270 g a.i./ha, post-emergence) | Herbicidal action 28 DAT [%] against Veronica hederifolia (270 g a.i./ha, post-emergence)
20%: Herbicidal action 14 DAT [%] against Alopecurus myosuroides (30 g a.i./ha, post-emergence) | Herbicidal action 14 DAT [%] against Phalaris minor (30 g a.i./ha, post-emergence) | Herbicidal action 21 DAT [%] against Abutilon theophrasti (30 g a.i./ha, post-emergence) | Herbicidal action 28 DAT [%] against Veronica hederifolia (30 g a.i./ha, post-emergence) | Herbicidal action 14 DAT [%] against Alopecurus myosuroides (90 g a.i./ha, post-emergence) | Herbicidal action 14 DAT [%] against Lolium rigidum (90 g a.i./ha, post-emergence) | Herbicidal action 14 DAT [%] against Poa annua L. (90 g a.i./ha, post-emergence) | Herbicidal action 21 DAT [%] against Abutilon theophrasti (90 g a.i./ha, post-emergence) | Herbicidal action 21 DAT [%] against Kochia Scoparia (90 g a.i./ha, post-emergence) | Herbicidal action 21 DAT [%] against Setaria viridis (90 g a.i./ha, post-emergence) | Herbicidal action 28 DAT [%] against Poa annua L. (90 g a.i./ha, post-emergence) | Herbicidal action 28 DAT [%] against Veronica hederifolia (90 g a.i./ha, post-emergence) | Herbicidal action 14 DAT [%] against Lolium rigidum (270 g a.i./ha, post-emergence) | Herbicidal action 28 DAT [%] against Alopecurus myosuroides (270 g a.i./ha, post-emergence) | Herbicidal action 28 DAT [%] against Matricaria inodora (270 g a.i./ha, post-emergence)
25%: Herbicidal action 21 DAT [%] against Kochia Scoparia (270 g a.i./ha, post-emergence)

C=C[C@]1(C(=O)N[C@H]2C=C[C@@H](C(=O)OC)C2)CC(c2cc(F)cc(F)c2)=NO1 [Compound A1, methyl (1S,4R)-4-[[[(5S)-3-(3,5-difluorophenyl)-5-vinyl-4H-1,2-oxazol-5-yl]carbonyl]amino]cyclopent-2-ene-1-carboxylate]
75%: Herbicidal action 14 DAT [%] against Phalaris minor (4 g a.i./ha, post-emergence) | Herbicidal action 28 DAT [%] against Lolium rigidum (4 g a.i./ha, post-emergence) | Herbicidal action 14 DAT [%] against Phalaris minor [3] | Herbicidal action 28 DAT [%] against Lolium rigidum [3] | Herbicidal action 21 DAT [%] against Kochia Scoparia (5 g a.i./ha, post-emergence) | Herbicidal action 21 DAT [%] against Kochia Scoparia [4]
50%: Herbicidal action 28 DAT [%] against Matricaria inodora [1] | Herbicidal action 28 DAT [%] against Matricaria inodora [2] | Herbicidal action 28 DAT [%] against Centaurea cyanus (16 g a.i./ha, post-emergence)
60%: Herbicidal action 21 DAT [%] against Abutilon theophrasti (5 g a.i./ha, post-emergence) | Herbicidal action 21 DAT [%] against Abutilon theophrasti [4]
17%: Herbicidal action 42 DAT [%] against Geranium dissectum (100 g a.i./ha, post-emergence)
80%: Herbicidal action 14 DAT [%] against Alopecurus myosuroides (4 g a.i./ha, post-emergence) | Herbicidal action 14 DAT [%] against Poa annua L. (4 g a.i./ha, post-emergence) | Herbicidal action 21 DAT [%] against Ipomoea purpurea (5 g a.i./ha, post-emergence) | Herbicidal action 21 DAT [%] against Ipomoea purpurea (15 g a.i./ha, post-emergence) | Herbicidal action 21 DAT [%] against Kochia Scoparia (15 g a.i./ha, post-emergence) | Herbicidal action 21 DAT [%] against Kochia Scoparia (15 g a.i./ha, post-emergence (Table 3.2, Z25)) | Herbicidal action 21 DAT [%] against Kochia Scoparia (15 g a.i./ha, post-emergence (Z26)) | Herbicidal action 14 DAT [%] against Lolium rigidum (16 g a.i./ha, post-emergence) | Herbicidal action 14 DAT [%] against Poa annua L. (16 g a.i./ha, post-emergence)
30%: Herbicidal action 14 DAT [%] against Phalaris minor (1 g a.i./ha, post-emergence) | Herbicidal action 14 DAT [%] against Veronica hederifolia (1 g a.i./ha, post-emergence) | Herbicidal action 28 DAT [%] against Bromus sterilis (1 g a.i./ha, post-emergence) | Herbicidal action 28 DAT [%] against Poa annua L. (1 g a.i./ha, post-emergence) | Herbicidal action 14 DAT [%] against Phalaris minor (1 g a.i./ha, post-emergence (Table 3.2, Z25)) | Herbicidal action 28 DAT [%] against Lolium rigidum [1] | Herbicidal action 28 DAT [%] against Lolium rigidum [2] | Herbicidal action 28 DAT [%] against Poa annua L. [2] | Herbicidal action 14 DAT [%] against Centaurea cyanus (4 g a.i./ha, post-emergence) | Herbicidal action 28 DAT [%] against Centaurea cyanus (4 g a.i./ha, post-emergence) | Herbicidal action 21 DAT [%] against Amaranthus palmeri (5 g a.i./ha, post-emergence (Z25)) | Herbicidal action 21 DAT [%] against Amaranthus palmeri (5 g a.i./ha, post-emergence (Z26))
85%: Herbicidal action 21 DAT [%] against Setaria viridis (1.7 g a.i./ha, post-emergence) | Herbicidal action 28 DAT [%] against Alopecurus myosuroides (4 g a.i./ha, post-emergence) | Herbicidal action 28 DAT [%] against Poa annua L. (4 g a.i./ha, post-emergence) | Herbicidal action 28 DAT [%] against Poa annua L. [3] | Herbicidal action 14 DAT [%] against Alopecurus myosuroides (16 g a.i./ha, post-emergence) | Herbicidal action 28 DAT [%] against Matricaria inodora (16 g a.i./ha, post-emergence) | Herbicidal action 28 DAT [%] against Phalaris minor (16 g a.i./ha, post-emergence) | Herbicidal action 28 DAT [%] against Matricaria inodora [5] | Herbicidal action 28 DAT [%] against Phalaris minor [5] | Herbicidal action 28 DAT [%] against Phalaris minor (16 g a.i./ha, post-emergence (Z26)) | Herbicidal action 21 DAT [%] against Kochia Scoparia (45 g a.i./ha, post-emergence)
48%: Herbicidal action 16 DAT [%] against Richardia scabra (100 g a.i./ha, post-emergence)
40%: Herbicidal action 28 DAT [%] against Veronica hederifolia (4 g a.i./ha, post-emergence) | Herbicidal action 28 DAT [%] against Lolium rigidum (resistant biotype) (4 g a.i./ha, post-emergence (Z25)) | Herbicidal action 28 DAT [%] against Lolium rigidum (resistant biotype) (4 g a.i./ha, post-emergence (Z26)) | Herbicidal action 21 DAT [%] against Amaranthus palmeri (15 g a.i./ha, post-emergence) | Herbicidal action 14 DAT [%] against Centaurea cyanus (16 g a.i./ha, post-emergence)
57%: Herbicidal action 45 DAT [%] against Amaranthus tuberculatus (100 g a.i./ha, post-emergence) | Herbicidal action 45 DAT [%] against Ipomoea ssp (100 g a.i./ha, post-emergence)
20%: Herbicidal action 14 DAT [%] against Lolium rigidum (resistant biotype) (1 g a.i./ha, post-emergence) | Herbicidal action 28 DAT [%] against Lolium rigidum (resistant biotype) (1 g a.i./ha, post-emergence)
70%: Herbicidal action 14 DAT [%] against Lolium rigidum (4 g a.i./ha, post-emergence) | Herbicidal action 14 DAT [%] against Matricaria inodora (4 g a.i./ha, post-emergence) | Herbicidal action 28 DAT [%] against Phalaris minor (4 g a.i./ha, post-emergence) | Herbicidal action 28 DAT [%] against Phalaris minor [3] | Herbicidal action 14 DAT [%] against Veronica hederifolia (16 g a.i./ha, post-emergence)
0%: Herbicidal action 42 DAT [%] against Malva pusilla (100 g a.i./ha, post-emergence)
10%: Herbicidal action 14 DAT [%] against Centaurea cyanus [1] | Herbicidal action 28 DAT [%] against Centaurea cyanus [1] | Herbicidal action 14 DAT [%] against Centaurea cyanus [2] | Herbicidal action 28 DAT [%] against Centaurea cyanus [2]
25%: Herbicidal action 45 DAT [%] against Lysimachia nummularia (100 g a.i./ha, post-emergence)
90%: Herbicidal action 21 DAT [%] against Setaria viridis (5 g a.i./ha, post-emergence)
